In brackets after ≈: the same amount, converted by molar mass. Like-named read-outs stand apart in the source and are kept apart here. Values belong to the compound of their own block, whether it stands above or below them.
Key:
Assay in all cases: In vitro antibacterial activity test (broth microdilution)
Assay type in all cases: cell-based
[1] = system: A. baumannii 46
Outline: (§1)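 MIC90 (ug/mL) determined by CLSI broth microdilution against clinical isolates, defined as lowest concentration inhibiting visible growth of 90% of organisms after incubation versus untreated control. Compounds tested from 0.0626 to 128 ug/mL final, with 2.5% (V/V) DMSO.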

[2] = system: A. baumannii 49
Outline: as §1

[3] = system: A. baumannii 52
Outline: as §1

[4] = system: A. calcoaceticus ATCC15473
Outline: as §1

[5] = system: E. cloacae β19
Outline: as §1

[6] = system: E. coli AG100
Outline: as §1

[7] = system: E. coli β4
Outline: as §1

[8] = system: K. pneumoniae 2011E
Outline: as §1

[9] = system: K. pneumoniae β10
Outline: as §1

[10] = system: K. pneumoniae β11
Outline: as §1

[11] = system: K. pneumoniae β13
Outline: as §1

[12] = system: K. pneumoniae β14
Outline: as §1

[13] = system: K. pneumoniae β9
Outline: as §1

[14] = system: M. catarrhalis 2524
Outline: as §1

[15] = system: P. aeruginosa 1912E
Outline: as §1

[16] = system: P. aeruginosa 37
Outline: as §1

[17] = system: P. aeruginosa 40
Outline: as §1

[18] = system: P. aeruginosa 43
Outline: as §1

[19] = system: P. aeruginosa 6065Y
Outline: as §1

[20] = Acinetobacter baumannii, 46, A. baumannii 46
[21] = Acinetobacter baumannii, 49, A. baumannii 49
[22] = Acinetobacter calcoaceticus, ATCC15473, A. calcoaceticus ATCC15473
[23] = Pseudomonas aeruginosa, 37, P. aeruginosa 37
[24] = Acinetobacter baumannii, A. baumannii 46, read-out: MIC90
[25] = Acinetobacter baumannii, A. baumannii 49, read-out: MIC90
[26] = Acinetobacter baumannii, A. baumannii 52, read-out: MIC90
[27] = Acinetobacter calcoaceticus, A. calcoaceticus ATCC15473, read-out: MIC90
[28] = Enterobacter cloacae, read-out: MIC90
[29] = Escherichia coli, AG100, E. coli AG100, read-out: MIC90
[30] = Escherichia coli, read-out: MIC90
[31] = Klebsiella pneumoniae, 2011E, K. pneumoniae 2011E, read-out: MIC90
[32] = Klebsiella pneumoniae, K. pneumoniae β10, read-out: MIC90
[33] = Klebsiella pneumoniae, K. pneumoniae β11, read-out: MIC90
[34] = Klebsiella pneumoniae, K. pneumoniae β13, read-out: MIC90
[35] = Klebsiella pneumoniae, read-out: MIC90
[36] = Klebsiella pneumoniae, K. pneumoniae β9, read-out: MIC90
[37] = Moraxella catarrhalis, M. catarrhalis 2524, read-out: MIC90
[38] = Pseudomonas aeruginosa, 1912E, read-out: MIC90
[39] = Pseudomonas aeruginosa, 37, P. aeruginosa 37, read-out: MIC90
[40] = Pseudomonas aeruginosa, 40, P. aeruginosa 40, read-out: MIC90
[41] = Pseudomonas aeruginosa, P. aeruginosa 43, read-out: MIC90
[42] = Pseudomonas aeruginosa, read-out: MIC90

Structure (SMILES): CC(C)(ON=C(C(=O)NC1C(=O)N2C(C(=O)O)=C(C=CC[n+]3cnc(N)c(NC(=O)CCN)c3N)CSC12)c1csc(N)n1)C(=O)O.O=C([O-])C(F)(F)F (centres unmarked) [Compound 45]
MIC90 ([1]; A. baumannii 46): 16 µg/mL | MIC90 ([2]; A. baumannii 49): >128 µg/mL | MIC90 ([3]; A. baumannii 52): >128 µg/mL | MIC90 ([4]; A. calcoaceticus ATCC15473): 2 µg/mL | MIC90 [5]: 0.25 µg/mL | MIC90 ([6]; E. coli AG100): 0.25 µg/mL | MIC90 [7]: 0.25 µg/mL | MIC90 ([8]; K. pneumoniae 2011E): 0.5 µg/mL | MIC90 ([9]; K. pneumoniae β10): 0.5 µg/mL | MIC90 ([10]; K. pneumoniae β11): 16 µg/mL | MIC90 ([11]; K. pneumoniae β13): 0.5 µg/mL | MIC90 [12]: 1 µg/mL | MIC90 ([13]; K. pneumoniae β9): 0.5 µg/mL | MIC90 ([14]; M. catarrhalis 2524): <0.0625 µg/mL | MIC90 [15]: 4 µg/mL | MIC90 ([16]; P. aeruginosa 37): 16 µg/mL | MIC90 ([17]; P. aeruginosa 40): 8 µg/mL | MIC90 ([18]; P. aeruginosa 43): >128 µg/mL | MIC90 [19]: 16 µg/mL

Structure (SMILES): CC(C)(O/N=C(\C(=O)N[C@@H]1C(=O)N2C(C(=O)[O-])=C(/C=C/C[n+]3cnc(N)c(NCCCN)c3)CSC12)c1nc(N)sc1Cl)C(=O)O (some centres unmarked) [Compound 57]
MIC90 [1, 20]: 1 µg/mL (≈ 1.44 µM) | MIC90 [2, 21]: 64 µg/mL (≈ 92.1 µM) | MIC90 ([3]; Acinetobacter baumannii, 52): 64 µg/mL (≈ 92.1 µM) | MIC90 [4, 22]: 0.5 µg/mL (≈ 0.719 µM) | MIC90 ([5]; Enterobacter cloacae): 8 µg/mL (≈ 11.5 µM) | MIC90 ([6]; Escherichia coli, AG100): 0.125 µg/mL (≈ 0.18 µM) | MIC90 ([7]; Escherichia coli): 0.125 µg/mL (≈ 0.18 µM) | MIC90 ([8]; Klebsiella pneumoniae, 2011E): 0.25 µg/mL (≈ 0.36 µM) | MIC90 ([9]; Klebsiella pneumoniae): 0.25 µg/mL (≈ 0.36 µM) | MIC90 ([10]; Klebsiella pneumoniae): 128 µg/mL (≈ 184 µM) | MIC90 ([11]; Klebsiella pneumoniae): 0.5 µg/mL (≈ 0.719 µM) | MIC90 ([12]; Klebsiella pneumoniae): 1 µg/mL (≈ 1.44 µM) | MIC90 ([13]; Klebsiella pneumoniae): 1 µg/mL (≈ 1.44 µM) | MIC90 ([14]; Moraxella catarrhalis, 2524): < 0.0625 µg/mL | MIC90 ([15]; Pseudomonas aeruginosa, 1912E): 0.5 µg/mL (≈ 0.719 µM) | MIC90 [16, 23]: 8 µg/mL (≈ 11.5 µM) | MIC90 ([17]; Pseudomonas aeruginosa, 40): 4 µg/mL (≈ 5.75 µM) | MIC90 ([18]; Pseudomonas aeruginosa, 43): > 128 µg/mL | MIC90 ([19]; Pseudomonas aeruginosa, 6065Y): 16 µg/mL (≈ 23 µM)

MIC90 [1, 24]: 2 µg/mL (≈ 2.44 µM) | MIC90 [2, 25]: 32 µg/mL (≈ 39 µM) | MIC90 [3, 26]: 16 µg/mL (≈ 19.5 µM) | MIC90 [4, 27]: 0.5 µg/mL (≈ 0.61 µM) | MIC90 [5, 28]: 0.5 µg/mL (≈ 0.61 µM) | MIC90 [6, 29]: < 0.0625 µg/mL | MIC90 [7, 30]: < 0.0625 µg/mL | MIC90 [8, 31]: 0.5 µg/mL (≈ 0.61 µM) | MIC90 [9, 32]: < 0.0625 µg/mL | MIC90 [10, 33]: 2 µg/mL (≈ 2.44 µM) | MIC90 [11, 34]: 0.125 µg/mL (≈ 0.152 µM) | MIC90 [12, 35]: 4 µg/mL (≈ 4.88 µM) | MIC90 [13, 36]: < 0.0625 µg/mL | MIC90 [14, 37]: < 0.0625 µg/mL | MIC90 [15, 38]: 0.25 µg/mL (≈ 0.305 µM) | MIC90 [16, 39]: < 0.0625 µg/mL | MIC90 [17, 40]: 0.25 µg/mL (≈ 0.305 µM) | MIC90 [18, 41]: 0.25 µg/mL (≈ 0.305 µM) | MIC90 [19, 42]: 0.5 µg/mL (≈ 0.61 µM)
Structure (SMILES): C[C@H](O/N=C(\C(=O)N[C@@H]1C(=O)N2C(C(=O)[O-])=C(/C=C/C[n+]3cnc(N)c(NCCNC(=O)c4cc(=O)c(O)cn4O)c3)CSC12)c1nc(N)sc1Cl)C(=O)O (some centres unmarked) [Compound 24]

MIC90 [1, 24]: 4 µg/mL (≈ 4.98 µM) | MIC90 [2, 25]: 16 µg/mL (≈ 19.9 µM) | MIC90 [3, 26]: 8 µg/mL (≈ 9.97 µM) | MIC90 [4, 27]: 0.5 µg/mL (≈ 0.623 µM) | MIC90 [5, 28]: 128 µg/mL (≈ 159 µM) | MIC90 [6, 29]: 1 µg/mL (≈ 1.25 µM) | MIC90 [7, 30]: 16 µg/mL (≈ 19.9 µM) | MIC90 [8, 31]: 16 µg/mL (≈ 19.9 µM) | MIC90 [9, 32]: 1 µg/mL (≈ 1.25 µM) | MIC90 [10, 33]: > 128 µg/mL | MIC90 [11, 34]: 16 µg/mL (≈ 19.9 µM) | MIC90 [12, 35]: 128 µg/mL (≈ 159 µM) | MIC90 [13, 36]: 64 µg/mL (≈ 79.7 µM) | MIC90 [14, 37]: 1 µg/mL (≈ 1.25 µM) | MIC90 [15, 38]: 2 µg/mL (≈ 2.49 µM) | MIC90 [16, 39]: 0.5 µg/mL (≈ 0.623 µM) | MIC90 [17, 40]: 0.5 µg/mL (≈ 0.623 µM) | MIC90 [18, 41]: 2 µg/mL (≈ 2.49 µM) | MIC90 [19, 42]: 2 µg/mL (≈ 2.49 µM)
Structure (SMILES): CC(C)(O/N=C(\C(=O)N[C@@H]1C(=O)N2C(C(=O)[O-])=C(C[n+]3cnc(N)c(NC(=O)CCNC(=O)c4cc(=O)c(O)cn4O)c3)CSC12)c1nsc(N)n1)C(=O)O (some centres unmarked) [Compound 19]

Structure (SMILES): CC(C)(O/N=C(\C(=O)N[C@@H]1C(=O)N2C(C(=O)[O-])=C(/C=C/C[n+]3cnc(N)c(NCCN)c3N)CSC12)c1csc(N)n1)C(=O)O (some centres unmarked) [Compound 44]
MIC90 [1, 20]: 16 µg/mL (≈ 24.2 µM) | MIC90 [2, 21]: > 128 µg/mL | MIC90 ([3]; Acinetobacter baumannii, 52): > 128 µg/mL | MIC90 [4, 22]: 1 µg/mL (≈ 1.51 µM) | MIC90 ([5]; Enterobacter cloacae): 0.5 µg/mL (≈ 0.756 µM) | MIC90 ([6]; Escherichia coli, AG100): 0.25 µg/mL (≈ 0.378 µM) | MIC90 ([7]; Escherichia coli): 0.5 µg/mL (≈ 0.756 µM) | MIC90 ([8]; Klebsiella pneumoniae, 2011E): 0.5 µg/mL (≈ 0.756 µM) | MIC90 ([9]; Klebsiella pneumoniae): 0.5 µg/mL (≈ 0.756 µM) | MIC90 ([10]; Klebsiella pneumoniae): 32 µg/mL (≈ 48.4 µM) | MIC90 ([11]; Klebsiella pneumoniae): 1 µg/mL (≈ 1.51 µM) | MIC90 ([12]; Klebsiella pneumoniae): 1 µg/mL (≈ 1.51 µM) | MIC90 ([13]; Klebsiella pneumoniae): 1 µg/mL (≈ 1.51 µM) | MIC90 ([14]; Moraxella catarrhalis, 2524): < 0.0625 µg/mL | MIC90 ([15]; Pseudomonas aeruginosa, 1912E): 8 µg/mL (≈ 12.1 µM) | MIC90 [16, 23]: 16 µg/mL (≈ 24.2 µM) | MIC90 ([17]; Pseudomonas aeruginosa, 40): 16 µg/mL (≈ 24.2 µM) | MIC90 ([18]; Pseudomonas aeruginosa, 43): 128 µg/mL (≈ 193 µM) | MIC90 ([19]; Pseudomonas aeruginosa, 6065Y): 32 µg/mL (≈ 48.4 µM)
